Data from patent US9180135B2, “Miliacin and sphingolipids and/or phospholipids composition for hair and scalp care” (HITEX, priority 2013, dated 2015).

Test system: hair bulb root cells (keratinocytes)
Assay: In vitro test: cellular proliferation of root cells (keratinocytes) in cultured human scalp fragments, anti-Ki67 immunohistochemistry
Format: cell-based
Details: cultures stopped on D4, 1.7 μg/ml of miliacin, Ki67-positive cells
Procedure: This test consists of studying the cellular proliferation of root cells (keratinocytes). Indeed, as mentioned above, cellular proliferation at the hair bulb matrix promotes hair growth.
Composition A: 1.7 μg/ml of miliacin
Composition B: 150 μg/ml of the composition disclosed herein, Keranat, comprising: • 1.7 μg/ml of miliacin (1.1% of mixture) • 0.30 μg/ml of glycosylceramides and ceramides (0.21% of mixture) • 1.2 μg/ml of phospholipids (0.8% of mixture) Methodology
Human scalp fragments were obtained in plastic surgery from twelve different donors from the occipital area prior to hair implantation. They were deposited in inserts, in turn placed in culture wells. Culture medium specifically suitable for maintaining survival conditions (antibiotic, foetal calf serum (FCS)) was added to the bottom of the wells, running a passage by slow diffusion between the two compartments via a 3 μm thick porous membrane.
The composition is added in dilution at a predetermined dose, in the culture medium to promote contact with the hair bulbs. […]
The root proliferation was analysed by means of immunohistochemistry using an anti-Ki67 antibody marker of phase M, S, G1 and G2 cells in the cell cycle (mouse monoclonal antibody, MIB1 clone, diluted to 1:300, marketed by Dako). […]
On each bulb, the number of positive cells is counted with respect to a total of approximately 100 cells. […]

Substance: miliacin [Composition A]
- Results (% of proliferating cells compared to control): +92%
- Results (% of proliferating cells compared to control) (listed as millet oil alone): 92%
